Structures are written as SMILES.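 96-well plates; 48 h exposure; 5 concentrations. Endpoints by linear interpolation between flanking doses. Not reached: highest tested concentration assigned. GI50 marks 50% less growth. TGI denotes the concentration required for complete inhibition of growth.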

Among the test systems are A498 renal; UACC-62 melanoma; PC-3 prostate; 786-0 renal; OVCAR-3 ovarian; UO-31 renal; HCC-2998 colon; SF-539 CNS; SF-295 CNS; SNB-19 CNS.
Holding throughout (assay): DTP human tumour cell line panel, 48 h

As to `Clc1ccc2c(c1)N(C1CCCN(Cc3ccccc3)C1)c1ccccc1S2` (stereo not given), the GI50 in the test on A498 renal is 14.7 µM; in the test with UACC-62 melanoma, 6.94 µM; in the test on PC-3 prostate it was 4.4 µM; in the test with 786-0 renal, 4.44 µM; with OVCAR-3 ovarian, 3.27 µM; in the test on UO-31 renal, 3.12 µM. Further, the GI50 was 5.59 µM with HCC-2998 colon, 4.61 µM in the test with SF-539 CNS, 2.44 µM in the test with SF-295 CNS and 6.02 µM in the test on SNB-19 CNS. For the same compound, the total growth inhibition concentration (TGI) in the test on A498 renal is above 100 µM; in the test with UACC-62 melanoma, above 100 µM; in the test with PC-3 prostate, above 100 µM; in the test with 786-0 renal, above 100 µM; with OVCAR-3 ovarian it was 24.4 µM; in the test on UO-31 renal, above 100 µM. The concentration for total growth inhibition (TGI) in the test with HCC-2998 colon is 32.3 µM; in the test with SF-539 CNS, 56.2 µM; in the test on SF-295 CNS, 6.82 µM; in the test with SNB-19 CNS, above 100 µM.

`COc1ccccc1/C=C\C(=O)C1COCN1` (stereo not given): the concentration for total growth inhibition (TGI) is 31.9 µM with UACC-62 melanoma; 29.1 µM with PC-3 prostate; 75.5 µM in the test on 786-0 renal; 34.2 µM in the test with OVCAR-3 ovarian; 44 µM with UO-31 renal; 38.5 µM in the test on SF-539 CNS. Also, the TGI in the test on SF-295 CNS stood at 50.8 µM; with SNB-19 CNS, 33.9 µM.

With `COc1ccc(S(=O)(=O)Nc2c(/C=C\c3cc(OC)c(OC)c(OC)c3)ccc(OC)c2O)cc1`, the GI50 was 0.0188 µM in the test on A498 renal; 0.0389 µM in the test on UACC-62 melanoma; 0.0408 µM in the test on PC-3 prostate; 0.375 µM in the test with 786-0 renal; 0.0338 µM in the test with OVCAR-3 ovarian; 0.0619 µM in the test on UO-31 renal. In addition, the GI50 was 0.0316 µM in the test with HCC-2998 colon, 0.0339 µM with SF-295 CNS and 0.0602 µM in the test with SNB-19 CNS. In addition, the TGI with A498 renal is 0.085 µM; in the test on UACC-62 melanoma, above 100 µM; in the test on PC-3 prostate, above 100 µM; in the test with 786-0 renal, 28 µM; in the test on OVCAR-3 ovarian it was 1.21 µM; in the test with UO-31 renal it was 62.4 µM. Moreover, the TGI in the test with HCC-2998 colon is 29.9 µM; in the test on SF-295 CNS, above 100 µM; with SNB-19 CNS, above 100 µM.

As for `CNC(=O)c1c(F)cccc1Nc1nc(Nc2cc3c(cc2OC)CCN3C(=O)CN(C)C)nc2[nH]ccc12`, the GI50 is above 39.6 µM with A498 renal; 4.66 µM in the test on UACC-62 melanoma; 6.25 µM with PC-3 prostate; 11.3 µM in the test on 786-0 renal; 15 µM in the test on OVCAR-3 ovarian; 3.85 µM in the test on UO-31 renal. Also, the GI50 is 4.42 µM in the test on HCC-2998 colon, 4.94 µM with SF-539 CNS, 19 µM in the test with SF-295 CNS and 7.04 µM in the test on SNB-19 CNS. Besides, the TGI was above 58.7 µM in the test with A498 renal; 9.79 µM with UACC-62 melanoma; 39.9 µM in the test on PC-3 prostate; 33.2 µM in the test with 786-0 renal; 30.8 µM with OVCAR-3 ovarian; 12.2 µM in the test on UO-31 renal. In addition, the TGI in the test on HCC-2998 colon is 9.2 µM; with SF-539 CNS it was 10.3 µM; in the test with SF-295 CNS, 38.2 µM; in the test on SNB-19 CNS, above 62.8 µM.

On to `NC(Cc1c[nH]c2ccc([N+](=O)[O-])cc12)C(=O)O` (stereo not given), for which the TGI with A498 renal, in the test on UACC-62 melanoma, in the test with PC-3 prostate, with 786-0 renal, with OVCAR-3 ovarian and in the test with UO-31 renal was above 100 µM throughout. The TGI with SF-295 CNS and in the test on SNB-19 CNS was above 100 µM in each case.

Take `COc1ccccc1[As]=[As]c1ccccc1OC` (stereo not given): the GI50 was 0.0622 µM in the test with A498 renal; 0.0663 µM in the test with UACC-62 melanoma; 0.0619 µM with PC-3 prostate; 0.0377 µM in the test with 786-0 renal; 0.0234 µM with OVCAR-3 ovarian; 0.0923 µM in the test on UO-31 renal. For the same compound, the GI50 in the test on HCC-2998 colon is 0.0785 µM; in the test on SF-539 CNS, 0.0383 µM; in the test on SF-295 CNS it was 0.104 µM; in the test with SNB-19 CNS, 0.065 µM. Also, the TGI was 0.184 µM with A498 renal; 0.224 µM with UACC-62 melanoma; 0.195 µM in the test on PC-3 prostate; 0.0853 µM with 786-0 renal; 0.0531 µM with OVCAR-3 ovarian; 0.24 µM in the test with UO-31 renal. Also, the TGI in the test with HCC-2998 colon stood at 0.218 µM; in the test on SF-539 CNS, 0.144 µM; in the test on SF-295 CNS, 0.264 µM; in the test on SNB-19 CNS, 0.193 µM.

`N#Cc1nc(C#N)c(Sc2ccccc2)c(Sc2ccccc2)c1Sc1ccccc1`: the GI50 in the test on A498 renal was 2.72 µM; with UACC-62 melanoma it was 1.37 µM; in the test with PC-3 prostate it was 0.753 µM; in the test with 786-0 renal it was 0.392 µM; in the test with OVCAR-3 ovarian, 1.45 µM; with UO-31 renal, 0.415 µM. For the same compound, the GI50 in the test on HCC-2998 colon is 2.24 µM; in the test with SF-539 CNS, 0.399 µM; in the test on SF-295 CNS it was 2.75 µM; with SNB-19 CNS, 2.5 µM. For the same compound, the concentration for total growth inhibition (TGI) was found to be 7.05 µM with A498 renal; 3.2 µM in the test with UACC-62 melanoma; 21.5 µM with PC-3 prostate; 2.89 µM in the test on OVCAR-3 ovarian; 1.08 µM in the test on UO-31 renal; 4.66 µM with HCC-2998 colon. Moreover, the TGI is 1.31 µM with SF-539 CNS, above 29.1 µM with SF-295 CNS and 5.9 µM in the test with SNB-19 CNS.

On to `COS(C)(=O)=O`, for which the TGI with A498 renal, in the test on UACC-62 melanoma, with PC-3 prostate, in the test on 786-0 renal, in the test on OVCAR-3 ovarian and with UO-31 renal was above 2 µM each time. In addition, the concentration for total growth inhibition (TGI) with HCC-2998 colon, in the test on SF-539 CNS and in the test on SNB-19 CNS was above 2 µM in each case.

As for `Oc1ccc2ccccc2c1C=NCc1c(O)ccc2ccccc12`, the TGI in the test on A498 renal is 74.5 µM; in the test with UACC-62 melanoma it was above 100 µM; in the test with PC-3 prostate, above 100 µM; in the test with 786-0 renal, above 100 µM; in the test with OVCAR-3 ovarian, above 100 µM; with UO-31 renal, above 100 µM. Also, the TGI in the test with HCC-2998 colon, in the test on SF-539 CNS, in the test with SF-295 CNS and in the test with SNB-19 CNS was above 100 µM throughout.

For `CC1=C(C(=O)Nc2ccc(F)c(Cl)c2)C(c2cccc(Oc3ccccc3)c2)NC(=S)N1` (stereo not given), the GI50 was 10 µM with UACC-62 melanoma; 11.9 µM in the test on PC-3 prostate; 10.8 µM in the test with 786-0 renal; 11.3 µM in the test on OVCAR-3 ovarian; 13.3 µM in the test on UO-31 renal; 23.8 µM in the test on HCC-2998 colon. Further, the values for the GI50 in the test with SF-539 CNS, with SF-295 CNS and in the test on SNB-19 CNS were 18.7 µM, 15.6 µM and 32.2 µM, respectively. For the same compound, the concentration for total growth inhibition (TGI) in the test with UACC-62 melanoma is 20.2 µM; with PC-3 prostate, 48.2 µM; with 786-0 renal, 21.5 µM; in the test with OVCAR-3 ovarian it was 28.6 µM; with UO-31 renal it was 44.3 µM; with HCC-2998 colon, above 50 µM. Also, the values for the TGI in the test with SF-539 CNS, in the test on SF-295 CNS and with SNB-19 CNS were 44 µM, above 50 µM and above 50 µM, respectively.

The record behind these values is PubChem BioAssay (NCI).
